Assay results: US6949542B2, “Dihydro-benzo[b][1,4]diazepin-2-one derivatives” (Hoffman-La Roche Inc., priority 2002, dated 2005)

**Q.** For `Cc1cc2c(cc1C(F)(F)F)NC(=O)CC(c1cccc(-c3ccnc(C#N)c3)c1)=N2` [Example 199, 4-[3-(8-Methyl-4-oxo-7-trifluoromethyl-4,5-dihydro-3H-benzo[b][1,4]diazepin-2-yl)-phenyl]-pyridine-2-carbonitrile], which melting point is on record?
**A.** The melting point was 205 to 211 °C.

**Q.** Which melting point does the source give for `O=C1CC(c2cccc(-c3cccnc3)c2)=Nc2cc(OCC(F)(F)F)c(Cl)cc2N1` [Example 202, 8-Chloro-4-(3-pyridin-3-yl-phenyl)-7-(2,2,2-trifluoro-ethoxy)-1,3-dihydro-benzo[b][1,4]diazepin-2-one] here?
**A.** The melting point was 203 to 204 °C.

**Q.** Which melting point does the source give for `N#Cc1cc(-c2cccc(C3=Nc4cc(OCC(F)(F)F)c(Cl)cc4NC(=O)C3)c2)ccn1` [Example 203, 4-{3-[7-Chloro-4-oxo-8-(2,2,2-trifluoro-ethoxy)-4,5-dihydro-3H-benzo[b][1,4]diazepin-2-yl]-phenyl}-pyridine-2-carbonitrile] here?
**A.** The melting point was 224 to 225 °C.

**Q.** For `N#Cc1ccc(-c2cccc(C3=Nc4ccc(C(F)(F)F)cc4NC(=O)C3)c2)cn1` [Example 204, 5-[3-(4-Oxo-7-trifluoromethyl-4,5-dihydro-3H-benzo[b][1,4]diazepin-2-yl)-phenyl]-pyridine-2-carbonitrile], which melting point is on record?
**A.** Its melting point is 234 to 237 °C.

**Q.** Which melting point does the source give for `O=C1CC(c2cccc(-c3cccnn3)c2)=Nc2ccc(C(F)(F)F)cc2N1` [Example 205, 4-(3-Pyridazin-3-yl-phenyl)-8-trifluoromethyl-1,3-dihydro-benzo[b][1,4]diazepin-2-one] here?
**A.** Its melting point is 238 to 240 °C.

**Q.** For `O=C1CC(c2cccc(-c3ccc(C4CC4)nc3)c2)=Nc2ccc(OC(F)(F)F)cc2N1` [Example 207, 4-[3-(6-Cyclopropyl-pyridin-3-yl)-phenyl]-8-trifluoromethoxy-1,3-dihydro-benzo[b][1,4]diazepin-2-one], which melting point is on record?
**A.** Its melting point is 190 to 191 °C.

**Q.** For `COCCOc1cc2c(cc1C(F)(F)F)NC(=O)CC(c1cccc(-c3cccnc3)c1)=N2` [Example 208, 7-(2-Methoxy-ethoxy)-4-(3-pyridin-3-yl-phenyl)-8-trifluoromethyl-1,3-dihydro-benzo[b][1,4]diazepin-2-one], which melting point is on record?
**A.** Its melting point is 190 to 191 °C.

**Q.** For `CCc1cc2c(cc1C(F)(F)F)NC(=O)CC(c1cccc(-c3ccnc(C#N)c3)c1)=N2` [Example 210, 4-[3-(8-Ethyl-4-oxo-7-trifluoromethyl-4,5-dihydro-3H-benzo[b][1,4]diazepin-2-yl)-phenyl]-pyridine-2-carbonitrile], which melting point is on record?
**A.** Its melting point is 210 to 217 °C.

**Q.** Which melting point does the source give for `CCc1cc2c(cc1C(F)(F)F)NC(=O)CC(c1cccc(-c3cccnc3)c1)=N2` [Example 211, 7-Ethyl-4-(3-pyridin-3-yl-phenyl)-8-trifluoromethyl-1,3-dihydro-benzo[b][1,4]diazepin-2-one] here?
**A.** The melting point was 197 to 198 °C.

**Q.** For `COc1ccc(-c2cccc(C3=Nc4ccc(OC(F)(F)F)cc4NC(=O)C3)c2)cn1` [Example 212, 4-[3-(6-Methoxy-pyridin-3-yl)-phenyl]-8-trifluoromethoxy-1,3-dihydro-benzo[b][1,4]diazepin-2-one], which melting point is on record?
**A.** The melting point was 186 °C.

**Q.** With `Cc1cc(-c2cccc(C3=Nc4ccc(OC(F)(F)F)cc4NC(=O)C3)c2)cc(C)n1` [Example 213, 4-[3-(2,6-Dimethyl-pyridin-4-yl)-phenyl]-8-trifluoromethoxy-1,3-dihydro-benzo[b][1,4]diazepin-2-one] as the molecule, how does the melting point read?
**A.** Its melting point is 190 to 193 °C.

**Q.** Which melting point does the source give for `C=Cc1cc2c(cc1C(F)(F)F)NC(=O)CC(c1cccc(-c3cccnc3)c1)=N2` [Example 214, 4-(3-Pyridin-3-yl-phenyl)-8-trifluoromethyl-7-vinyl-1,3-dihydro-benzo[b][1,4]diazepin-2-one] here?
**A.** The melting point was 208 to 209 °C.

**Q.** With `CCCOc1cc2c(cc1C(F)(F)F)NC(=O)CC(c1cccc(-c3cccnc3)c1)=N2` [Example 215, 7-Propoxy-4-(3-pyridin-3-yl-phenyl)-8-trifluoromethyl-1,3-dihydro-benzo[b][1,4]diazepin-2-one] as the molecule, how does the melting point read?
**A.** The melting point was 219 to 221 °C.

**Q.** With `CCCOc1cc2c(cc1C(F)(F)F)NC(=O)CC(c1cccc(-c3ccc(C4CC4)nc3)c1)=N2` [Example 216, 4-[3-(6-Cyclopropyl-pyridin-3-yl)-phenyl]-7-propoxy-8-trifluoromethyl-1,3-dihydro-benzo[b][1,4]diazepin-2-one] as the molecule, how does the melting point read?
**A.** Its melting point is 209 to 210 °C.

**Q.** With `Cc1cc2c(cc1C(F)(F)F)NC(=O)CC(c1cccc(-c3ccc(N(C)C)nc3)c1)=N2` [Example 217, 4-[3-(6-Dimethylamino-pyridin-3-yl)-phenyl]-7-methyl-8-trifluoromethyl-1,3-dihydro-benzo[b][1,4]diazepin-2-one] as the molecule, how does the melting point read?
**A.** The melting point was 231 to 233 °C.

**Q.** For `CN(C)c1ccc(-c2cccc(C3=Nc4cc(OCC(F)(F)F)c(C(F)(F)F)cc4NC(=O)C3)c2)cn1` [Example 218, 4-[3-(6-Dimethylamino-pyridin-3-yl)-phenyl]-7-(2,2,2-trifluoro-ethoxy)-8-trifluoromethyl-1,3-dihydro-benzo[b][1,4]diazepin-2-one], which melting point is on record?
**A.** The melting point was 240 to 241 °C.

**Q.** For `CCCOc1cc2c(cc1C(F)(F)F)NC(=O)CC(c1cccc(-c3cc(C)nc(C)c3)c1)=N2` [Example 219, 4-[3-(2,6-Dimethyl-pyridin-4-yl)-phenyl]-7-propoxy-8-trifluoromethyl-1,3-dihydro-benzo[b][1,4]diazepin-2-one], which melting point is on record?
**A.** Its melting point is 205 to 206 °C.

**Q.** For `O=C1CC(c2cccc(-c3cccnc3C3CC3)c2)=Nc2ccc(C(F)(F)F)cc2N1` [Example 220, 4-[3-(2-Cyclopropyl-pyridin-3-yl)-phenyl]-8-trifluoromethyl-1,3-dihydro-benzo[b][1,4]diazepin-2-one], which melting point is on record?
**A.** The melting point was 171 to 173 °C.

**Q.** With `Cc1cc2c(cc1C(F)(F)F)NC(=O)CC(c1cccc(-c3cccnc3C3CC3)c1)=N2` [Example 221, 4-[3-(2-Cyclopropyl-pyridin-3-yl)-phenyl]-7-methyl-8-trifluoromethyl-1,3-dihydro-benzo[b][1,4]diazepin-2-one] as the molecule, how does the melting point read?
**A.** The melting point was 173 to 175 °C.

**Q.** Which melting point does the source give for `Cc1ccncc1-c1cccc(C2=Nc3ccc(C(F)(F)F)cc3NC(=O)C2)c1` [Example 226, 4-[3-(4-Methyl-pyridin-3-yl)-phenyl]-8-trifluoromethyl-1,3-dihydro-benzo[b][1,4]diazepin-2-one] here?
**A.** Its melting point is 220 to 221 °C.

**Q.** Which melting point does the source give for `CCOc1cc2c(cc1C(F)(F)F)NC(=O)CC(c1cccc(-c3cccnc3C3CC3)c1)=N2` [Example 227, 4-[3-(2-Cyclopropyl-pyridin-3-yl)-phenyl]-7-ethoxy-8-trifluoromethyl-1,3-dihydro-benzo[b][1,4]diazepin-2-one] here?
**A.** Its melting point is 187 to 188 °C.

**Q.** Which melting point does the source give for `CCCc1cc2c(cc1C(F)(F)F)NC(=O)CC(c1cccc(-c3cc(C)nc(C)c3)c1)=N2` [Example 229, 4-[3-(2,6-Dimethyl-pyridin-4-yl)-phenyl]-7-propyl-8-trifluoromethyl-1,3-dihydro-benzo[b][1,4]diazepin-2-one] here?
**A.** Its melting point is 216 °C.

**Q.** With `CCCc1cc2c(cc1C(F)(F)F)NC(=O)CC(c1cccc(-c3cccnc3)c1)=N2` [Example 230, 7-Propyl-4-(3-pyridin-3-yl-phenyl)-8-trifluoromethyl-1,3-dihydro-benzo[b][1,4]diazepin-2-one] as the molecule, how does the melting point read?
**A.** Its melting point is 162 °C.

**Q.** For `CCOc1cc2c(cc1C(F)(F)F)NC(=O)CC(c1cccc(-c3cnccc3C)c1)=N2` [Example 231, 7-Ethoxy-4-[3-(4-methyl-pyridin-3-yl)-phenyl]-8-trifluoromethyl-1,3-dihydro-benzo[b][1,4]diazepin-2-one], which melting point is on record?
**A.** The melting point was 213 to 214 °C.
